Laboratory results from patent US4892963A, “N-phenyl amide compounds” (Lilly Industries Limited, priority 1986, dated 1990).

What was measured:
cyclooxygenase = cyclooxygenase inhibition test of Harvey and Osborn
Description: Other members of the series inhibit 5-lipoxygenase product formation as measured in this test, and are thus indicated for the therapeutic treatment of diseases in which leukotrienes are implicated. These include immediate hypersensitivity diseases, allergic reactions of the pulmonary system, for example, in lung disorders such as extrinsic asthma and industrial asthmas and in other inflammatory disorders associated with acute or chronic infectious diseases as allergic skin diseases, ectopic and atopic eczemas, psoriasis, contact hypersensitivity and angioneurotic oedema, bronchitis, cystic fibrosis and rheumatic fever. Furthermore, owing to their inhibition of leukotriene formation, the compounds have potential activity against a wide range of inflammatory diseases, and are also indicated for use in cancer treatment.

rat spleen cells = assay: concanavalin A response of rat spleen cells (tritiated thymidine uptake); format: cell-based; conditions: dosage level of 10 micromolar, concanavalin A 3 μg/ml, 2×10^5 cells per well
Experimental: The concanavalin A response of rat spleen cells was used as a primary in vitro assay to determine the activity of the compounds of the invention. Many methods for the determination of concanavalin A response are described in the literature. The method employed was similar to that described by Lacombe P. et al, FEBS 3048 191, 227-230. This method was altered insofar as Hepes was excluded, 2×10^5 cells were used per culture well, and concanavalin A employed at 3 μg/ml. 2-Mercaptoethanol was a requirement (2×10M^-5 ) and 0.1 μCi of tritiated thymidine was added 4 hours before cell harvesting.

| Compound | cyclooxygenase inhibiting properties (cyclooxygenase) | inhibition at 10 µM (rat spleen cells) |
| --- | --- | --- |
| CC(O)=C(C#N)C(=O)N(C)c1ccc(C(C)(C)C)cc1 [Example 2, 2-Cyano-N-[4-(1,1-dimethylethyl)phenyl]-3-hydroxy-N-methylbut-2-enamide] | little or no cyclooxygenase inhibiting properties | – |
| Cc1oncc1C(=O)Nc1ccc(C(C)(C)C)cc1 [Example 3, N-[4-(1,1-Dimethylethyl)phenyl]-5-methylisoxazol-4-yl-carboxamide] | – | > 50% |
| CCC(C)(C)c1ccc(NC(=O)C(C#N)=C(C)O)cc1 [Example 4, 2-Cyano-N-[4-(1,1-dimethylpropyl)phenyl]-3-hydroxybut-2-enamide] | – | > 50% |
| CC(O)=C(C#N)C(=O)Nc1ccc(C(C)(C)C)cc1 [Example 1, 2-Cyano-N-[4-(1,1-dimethylethyl)phenyl]-3-hydroxybut-2-enamide] | little or no cyclooxygenase inhibiting properties | > 50% |
